“Also recorded” adds a separate entry of the source. Read-outs that look alike come from different tables or passages of the source.
How the values were obtained:
LRRK2 G2019S = target: T1, LRRK2 G2019S (Homo sapiens, UniProt Q5S007, G2019S); assay: LRRK2 G2019S kinase activity assay (LanthaScreen TR-FRET); assay type: biochemical; conditions: 250 pM LRRK2 G2019S, 1.3 mM ATP, 3 h at 30° C.; n≥2 tests
T1 construct: purchased Invitrogen (Life Technologies Corporation)
How it was run: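 TR-FRET measured phosphorylation of fluorescein-ERM LRRKtide by human LRRK2 residues 970–2527, wild-type or G2019S, detected with a terbium anti-phospho-LRRKtide antibody. The 520/495 nm ratio was normalized to uninhibited and inhibitor controls. IC50 came from a Hill fit, log-averaged over independent experiments.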

[1] = Hepatocyte intrinsic clearance assay; assay type: in vitro ADME, human; conditions: human, pooled donor, cryopreserved hepatocytes, pH 7.4, 0.1 μM, 2 h at 37° C., 1×10^6 hepatocytes/mL; * measured on 3 separate occasions, ** on a single occasion
How it was run: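 Test compound at 0.1 μM final (0.05% organic) incubated 2 h at 37° C with shaking in supplemented Leibovitz L-15 medium (pH7.4), 1×10^6 hepatocytes/mL final. Samples taken 1–120 min, quenched in acetonitrile, analyzed by LC-MS/MS. CLint derived from slope of % remaining versus time.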

GSH adduct screening = assay type: in vitro ADME, human; conditions: 1 μM, 3 h at 37° C., HLM 0.5 mg/mL, NADPH, with and without GSH
Experimental: Test compounds (final concentration 1 μM, 0.25% organic) were incubated for 3 h at 37° C. in commercially sourced, pooled donor, human liver microsomes (HLM, final concentration 0.5 mg/mL) with and without addition of glutathione (GSH; final concentration […]). The metabolic reaction was initiated by addition of microsomal solution to the mixture of cofactor NADPH (final concentration 1 mM), test compound and GSH. After 3 h of incubation in a water bath at 37° C., the reaction was stopped by addition of 0.2% formic acid in acetonitrile, followed by mixing and centrifugation (16000 g for 5 minutes). Supernatant was diluted (1:1) with HPLC water then analyzed by liquid chromatography (LC)-quadrupole time-of-flight mass spectrometry (QTOF-MS). Accurate mass MS and MS/MS spectra from samples with GSH and without GSH, respectively, were compared to identify detectable GSH and/or cysteine related adducts.

[2] = Minipig B/P (brain disposition); assay type: in vivo, female Gottingen minipigs; conditions: female, Gottingen, mean ± stdev
Experimental: Brain disposition of Example 13 was evaluated in female Gottingen minipigs (n=3, body weight range 13-14 kg). […] At the end of infusion (2 h) the minipigs were sacrificed and terminal blood as well as brain samples were taken (n=3). Isolated plasma and brain homogenates were extracted by standard protein precipitation in acetonitrile, containing internal standard, followed by LC-MS/MS analysis using an optimized analytical method. Concentrations of test compound in plasma and brain were quantified against matrix matched calibration standards. The total plasma and brain concentration time data are presented in Table 6 alongside the calculated brain Kp (total brain concentration:total plasma concentration ratio).

[3] = Rat B/P (brain disposition); assay type: in vivo, male Sprague-Dawley rats; conditions: for concentration at 1 h / Kp at 1 h / Kp uu at 1 h: male, Sprague-Dawley, time point 1.0 h; for Kp at 1 h / Kp uu at 1 h: brain/plasma; for Kp at 1 h: n = 3; for Kp uu at 1 h: po
How it was run: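 Male Sprague-Dawley rats (n=3, standard body weight) were used to assess brain disposition. Plasma and brain homogenates underwent protein precipitation with acetonitrile containing internal standard, then LC-MS/MS measurement using an optimized method. Compound levels were quantified against matrix-matched calibration standards, and brain Kp was calculated as total brain concentration divided by total plasma concentration.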

T1 sequence (Q5S007 970-2527 G2019S): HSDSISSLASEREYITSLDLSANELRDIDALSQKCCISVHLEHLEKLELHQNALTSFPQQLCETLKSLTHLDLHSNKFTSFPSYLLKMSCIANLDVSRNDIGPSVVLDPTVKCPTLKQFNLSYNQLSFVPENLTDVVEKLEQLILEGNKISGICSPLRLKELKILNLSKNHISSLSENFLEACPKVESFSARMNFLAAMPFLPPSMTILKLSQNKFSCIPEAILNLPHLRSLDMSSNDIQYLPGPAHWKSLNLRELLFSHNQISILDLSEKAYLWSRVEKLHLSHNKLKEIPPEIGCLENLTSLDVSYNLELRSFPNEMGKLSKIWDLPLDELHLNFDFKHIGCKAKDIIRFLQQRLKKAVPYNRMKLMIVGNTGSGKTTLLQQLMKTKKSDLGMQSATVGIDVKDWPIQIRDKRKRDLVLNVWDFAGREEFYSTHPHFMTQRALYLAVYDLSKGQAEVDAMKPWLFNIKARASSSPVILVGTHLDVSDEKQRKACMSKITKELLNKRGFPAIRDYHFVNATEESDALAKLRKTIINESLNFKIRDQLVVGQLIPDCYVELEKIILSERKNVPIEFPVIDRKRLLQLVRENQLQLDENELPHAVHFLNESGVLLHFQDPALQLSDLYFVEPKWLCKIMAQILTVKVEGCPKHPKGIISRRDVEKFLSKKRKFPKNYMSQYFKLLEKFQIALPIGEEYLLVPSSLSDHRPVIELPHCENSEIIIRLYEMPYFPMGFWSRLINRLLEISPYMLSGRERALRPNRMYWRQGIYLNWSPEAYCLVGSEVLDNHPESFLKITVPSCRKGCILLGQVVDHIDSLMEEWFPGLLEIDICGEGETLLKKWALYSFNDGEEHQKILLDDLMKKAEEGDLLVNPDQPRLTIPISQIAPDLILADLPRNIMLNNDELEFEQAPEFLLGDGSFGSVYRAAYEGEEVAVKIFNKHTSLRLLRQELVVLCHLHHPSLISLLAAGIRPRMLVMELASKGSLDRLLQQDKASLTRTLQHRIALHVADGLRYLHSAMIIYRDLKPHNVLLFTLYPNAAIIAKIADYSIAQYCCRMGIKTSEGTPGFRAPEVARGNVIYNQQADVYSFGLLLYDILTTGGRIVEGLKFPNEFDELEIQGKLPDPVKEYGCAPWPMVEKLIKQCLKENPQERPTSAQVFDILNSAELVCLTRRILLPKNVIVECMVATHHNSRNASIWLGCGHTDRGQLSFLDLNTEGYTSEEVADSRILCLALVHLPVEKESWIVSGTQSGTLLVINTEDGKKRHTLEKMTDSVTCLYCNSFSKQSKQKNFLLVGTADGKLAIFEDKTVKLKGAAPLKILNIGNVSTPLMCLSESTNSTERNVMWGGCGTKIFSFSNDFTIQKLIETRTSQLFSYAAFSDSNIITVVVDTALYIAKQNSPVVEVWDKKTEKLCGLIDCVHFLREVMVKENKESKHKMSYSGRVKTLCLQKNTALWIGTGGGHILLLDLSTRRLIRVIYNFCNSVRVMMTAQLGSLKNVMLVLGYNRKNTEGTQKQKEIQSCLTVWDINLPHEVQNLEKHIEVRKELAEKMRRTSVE

For [2H]C([2H])([2H])c1c2c(nn1C1CCOCC1)OCCCn1nc(Cl)c3cnc(nc31)N2 [Example 13, 8-Chloro-3-(methyl-d3)-2-(tetrahydro-2H-pyran-4-yl)-2,4,12,13-tetrahydro-11H-5,7-(azenometheno)dipyrazolo[3,4-b:5′,1′-g][1]oxa[4,6,8]triazacycloundecine], the IC50 (LRRK2 G2019S) was 2.5 nM, the CLint scaled at 0.1 μM [1] was 6 mL/min/kg and the “Adduct detected in GSH supplemented HLMs” value (GSH adduct screening) was “did not form GSH adduct; also recorded: None detected”. The concentration at 2 h ([2]; brain, IV bolus 0.28 mg/kg + IV infusion 0.60 mg/kg, time point 2.00 h, n = 3, read-out: CTotal, brain) was 151 ± 11 ng/mL, the Kp at 2 h ([2]; intravenous, total brain:total plasma concentration ratio, time point 2.00 h, n = 3) was 1.63 ± 0.08 and the concentration at 0.083 h ([2]; plasma, IV bolus 0.28 mg/kg + IV infusion 0.60 mg/kg, time point 0.083 h, n = 3, read-out: CTotal, plasma) was 95 ± 18 ng/mL. It also gave a concentration at 0.5 h ([2]; plasma, IV bolus 0.28 mg/kg + IV infusion 0.60 mg/kg, time point 0.50 h, n = 3, read-out: CTotal, plasma) of 89 ± 20 ng/mL, a concentration at 1 h ([2]; plasma, IV bolus 0.28 mg/kg + IV infusion 0.60 mg/kg, time point 1.00 h, n = 3, read-out: CTotal, plasma) of 91 ± 9 ng/mL and a concentration at 1.5 h ([2]; plasma, IV bolus 0.28 mg/kg + IV infusion 0.60 mg/kg, time point 1.50 h, n = 3, read-out: CTotal, plasma) of 106 ± 13 ng/mL. For the same molecule, the concentration at 1.83 h ([2]; plasma, IV bolus 0.28 mg/kg + IV infusion 0.60 mg/kg, time point 1.83 h, n = 3, read-out: CTotal, plasma) was 105 ± 8 ng/mL, the concentration at 2 h ([2]; plasma, IV bolus 0.28 mg/kg + IV infusion 0.60 mg/kg, time point 2.00 h, n = 3, read-out: CTotal, plasma) was 93 ± 11 ng/mL and the “extent of brain penetration, classified from rat brain Kp,uu values” ([3]; Table 8, brain free fraction from brain slice model) was “moderately high brain penetrant”. The concentration at 1 h ([3]; brain, oral gavage 1 mg/kg, Table 8, read-out: Total brain concentration) was 130 ± 27 ng/mL, the concentration at 1 h ([3]; brain, oral gavage 1 mg/kg, mean ± stdev, n = 3, read-out: Total brain concentration) was 130 ± 27 ng/g and the concentration at 1 h ([3]; brain, oral gavage 3 mg/kg, Table 8, read-out: Total brain concentration) was 597 ± 169 ng/mL. For the same molecule, the concentration at 1 h ([3]; brain, oral gavage 3 mg/kg, mean ± stdev, n = 3, read-out: Total brain concentration) was 597 ± 169 ng/g, the concentration at 1 h ([3]; brain, oral gavage 10 mg/kg, Table 8, read-out: Total brain concentration) was 2030 ± 462 ng/mL and the concentration at 1 h ([3]; brain, oral gavage 10 mg/kg, mean ± stdev, n = 3, read-out: Total brain concentration) was 2030 ± 462 ng/g. It also gave a Kp at 1 h ([3]; oral gavage 1 mg/kg, mean ± stdev) of 1.76 ± 0.04, a Kp at 1 h ([3]; oral gavage 3 mg/kg, mean ± stdev) of 1.74 ± 0.1 and a Kp at 1 h ([3]; oral gavage 10 mg/kg, mean ± stdev) of 1.3 ± 0.22. The Kp uu at 1 h ([3]; 1 mg/kg, oral gavage 1 mg/kg, brain free fraction from rat brain slice model) was 0.54 ± 0.01, the Kp uu at 1 h ([3]; 1 mg/kg, oral gavage 1 mg/kg, fubrain from brain homogenate) was 0.38 ± 0.01 and the Kp uu at 1 h ([3]; 3 mg/kg, oral gavage 3 mg/kg, brain free fraction from rat brain slice model) was 0.54 ± 0.03. The Kp uu at 1 h ([3]; 3 mg/kg, oral gavage 3 mg/kg, fubrain from brain homogenate) was 0.38 ± 0.02, the Kp uu at 1 h ([3]; 10 mg/kg, oral gavage 10 mg/kg, brain free fraction from rat brain slice model) was 0.4 ± 0.07 and the Kp uu at 1 h ([3]; 10 mg/kg, oral gavage 10 mg/kg, fubrain from brain homogenate) was 0.28 ± 0.05. The concentration at 1 h ([3]; plasma, oral gavage 1 mg/kg, mean ± stdev, n = 3, read-out: Total plasma concentration) was 74 ± 17 ng/mL, the concentration at 1 h ([3]; plasma, oral gavage 3 mg/kg, mean ± stdev, n = 3, read-out: Total plasma concentration) was 340 ± 78 ng/mL and the concentration at 1 h ([3]; plasma, oral gavage 10 mg/kg, mean ± stdev, n = 3, read-out: Total plasma concentration) was 1640 ± 655 ng/mL.
